# Laboratory results reported in patent US10787481B2, “Sugar-dipeptide conjugates as flavor molecules” (NESTEC S.A., priority 2015, dated 2020).
# Like-named read-outs stand apart in the source and are kept apart here.
# Assays:
# [1] = system: sensory panel; experiment: Taste threshold concentration in model broth (sensory panel, triangle test); type: in vivo, human; details: versus β-alanyl-L-glycine
# Method: The sensory tests were performed in a sensory panel room at 20-25° C. To avoid a retro-nasal aroma or taste impression, nose clips were used. The sensory panel consisted of 8 to 14 trained persons. The panel was trained to evaluate the taste of aqueous solutions (1 mL each) of the following standard taste compounds by using a triangle test: saccharose (50 mmol/L) and L-alanine (15 mmol/L), respectively, for sweet taste; lactic acid (20 mmol/L) for sour taste; NaCl (12 mmol/L) for salty taste; caffeine (1 mmol/L) and quinine hydrochloride (0.05 mmol/L), respectively, for bitter taste; sodium glutamate (8 mmol/L, pH 5.7) for umami taste; and tannin (0.05%) for astringency. The “white meaty” oral sensations was assessed in a model broth solution prepared from monosodium glutamate monohydrate (1.9 g/L), yeast extract (2.1 g/L), maltodextrin (6.375 g/L) and sodium chloride (2.9 g/L) in bottled water (pH 5.9).
# [2] = system: sensory panel; details: chicken soup with 1 g monosodium glutamate in 500 mL; compound at 2 g/L; 12 panelists
# Method: Chicken soups were prepared by dissolving 6 g chicken base powder (detailed recipe shown in Table 1) and 1 g monosodium glutamate in 500 mL hot water.
# The sensory evaluation was carried out by 12 panelists, previously screened for their sensory abilities.
# [3] = system: sensory panel; details: tomato soup; compound at 2 g/L
compound,measurement,setting,value
O=C(O)CNC(=O)CCNCC(=O)[C@@H](O)[C@H](O)[C@H](O)CO,lowering of the taste threshold molar concentration by a factor,[1],about 4
same,sensory difference described by panel,[2],"increased the spicy, savory and meaty flavours"
same,sensory difference described by panel,[3],"increased the savory, fatty and spicy notes"
